Data from ChEMBL document CHEMBL1150042, “The synthesis of BRL 49653 - a novel and potent antihyperglycaemic agent” (Bioorg Med Chem Lett, 1994).

Species on record: Mus musculus
Assay: Minimum effective dose for anti-hyperglycaemic activity was determined in C57B1/6 ob/ob obese mouse
Type: functional

| Structure (SMILES) | MED |
| --- | --- |
| O=C(NCCOc1ccc(CC2SC(=O)NC2=O)cc1)Nc1ccccc1 (stereo not drawn) | 100 uM.kg/diet |
| CC1(COc2ccc(CC3SC(=O)NC3=O)cc2)CCCC(O)C1 (stereo not drawn) | 500 uM.kg/diet |
| CN(CCOc1ccc(CC2SC(=O)NC2=O)cc1)c1nc2ccccc2o1 (stereo not drawn) [BRL-48482] | 3 uM.kg/diet |
| CC1(COc2ccc(CC3SC(=O)NC3=O)cc2)CCCCC1 (stereo not drawn) [CIGLITAZONE] | 3000 uM.kg/diet |
| O=C1NC(=O)C(Cc2ccc3c(c2)CC[C@H](Cc2ccccc2)O3)S1 (stereo partly drawn) [ENGLITAZONE] | 200 uM.kg/diet |
| CCc1ccc(CCOc2ccc(CC3SC(=O)NC3=O)cc2)nc1 (stereo not drawn) [PIOGLITAZONE] | 200 uM.kg/diet |
| CN(CCOc1ccc(CC2SC(=O)NC2=O)cc1)c1ccccn1 (stereo not drawn) [ROSIGLITAZONE] | 3 µM/kg |
| Cc1c(C)c2c(c(C)c1O)CCC(C)(COc1ccc(CC3SC(=O)NC3=O)cc1)O2 (stereo not drawn) [TROGLITAZONE] | 600 uM.kg/diet |
